Assay [1] addresses Transitional endoplasmic reticulum ATPase (Homo sapiens, UniProt P55072). Put plainly: p97 ATPase inhibitors, dose response, biochemical (AID 1534).
Assay [2] deals with Ras and Rab interactor 1/Tyrosine-protein kinase ABL1 (Homo sapiens, UniProt P00519+Q13671). Put plainly: biochemical. It counts as functional.
Another assay concerns the target T1, Caspase-6 (Homo sapiens, UniProt P55212).
T1 sequence (P55212 whole entry): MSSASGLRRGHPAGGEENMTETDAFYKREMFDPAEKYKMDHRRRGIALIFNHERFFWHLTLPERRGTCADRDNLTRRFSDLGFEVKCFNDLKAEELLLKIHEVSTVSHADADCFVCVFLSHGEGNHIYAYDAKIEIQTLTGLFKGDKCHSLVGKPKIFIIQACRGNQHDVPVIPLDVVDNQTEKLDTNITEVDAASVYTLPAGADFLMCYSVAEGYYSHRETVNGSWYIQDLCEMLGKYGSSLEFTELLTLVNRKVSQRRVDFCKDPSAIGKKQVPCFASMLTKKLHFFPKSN
Put plainly: human caspase-6 inhibitors, dose response, biochemical, VEID-R110 fluorescence, cherry-pick (AID 720632).

Another assay has as its target T2, Interleukin-8 (Homo sapiens, UniProt P10145).
T2 sequence (P10145 whole entry): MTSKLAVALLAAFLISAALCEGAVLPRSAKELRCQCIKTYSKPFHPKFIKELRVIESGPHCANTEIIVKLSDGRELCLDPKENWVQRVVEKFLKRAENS
Put plainly: SAR analysis of Tumor necrosis factor alpha (TNF-alpha) induced IL-8 secretion in MCF-7/NOD1 cells - Set 2. [Related pubchem assays (depositor defined):AID1575, AID2250, AID2260]. The class given is functional, cell-based.

For assay [3], the target named is Nucleotide-binding oligomerization domain-containing protein 2 (Homo sapiens, UniProt Q9HC29). Put plainly: NOD2 inhibitors, SAR follow-up, set 2 (AID 2475). It counts as functional.
Assay [4] concerns the target Glucose-6-phosphate 1-dehydrogenase (Homo sapiens, UniProt P11413). Put plainly: human G6PD enzyme inhibitors, dose response, selectivity assay for P. falciparum G6PD inhibitor project, biochemical, fluorescence (AID 504792). It counts as functional.
Assay [5] in a line: THP-1 cell cytotoxicity, dose response, cytotoxicity control for non-replicating M. tuberculosis project (AID 489025). The class given is functional.
The target of assay [6] is T3, Nucleotide-binding oligomerization domain-containing protein 1 (Homo sapiens, UniProt Q9Y239).
T3 sequence (Q9Y239 whole entry): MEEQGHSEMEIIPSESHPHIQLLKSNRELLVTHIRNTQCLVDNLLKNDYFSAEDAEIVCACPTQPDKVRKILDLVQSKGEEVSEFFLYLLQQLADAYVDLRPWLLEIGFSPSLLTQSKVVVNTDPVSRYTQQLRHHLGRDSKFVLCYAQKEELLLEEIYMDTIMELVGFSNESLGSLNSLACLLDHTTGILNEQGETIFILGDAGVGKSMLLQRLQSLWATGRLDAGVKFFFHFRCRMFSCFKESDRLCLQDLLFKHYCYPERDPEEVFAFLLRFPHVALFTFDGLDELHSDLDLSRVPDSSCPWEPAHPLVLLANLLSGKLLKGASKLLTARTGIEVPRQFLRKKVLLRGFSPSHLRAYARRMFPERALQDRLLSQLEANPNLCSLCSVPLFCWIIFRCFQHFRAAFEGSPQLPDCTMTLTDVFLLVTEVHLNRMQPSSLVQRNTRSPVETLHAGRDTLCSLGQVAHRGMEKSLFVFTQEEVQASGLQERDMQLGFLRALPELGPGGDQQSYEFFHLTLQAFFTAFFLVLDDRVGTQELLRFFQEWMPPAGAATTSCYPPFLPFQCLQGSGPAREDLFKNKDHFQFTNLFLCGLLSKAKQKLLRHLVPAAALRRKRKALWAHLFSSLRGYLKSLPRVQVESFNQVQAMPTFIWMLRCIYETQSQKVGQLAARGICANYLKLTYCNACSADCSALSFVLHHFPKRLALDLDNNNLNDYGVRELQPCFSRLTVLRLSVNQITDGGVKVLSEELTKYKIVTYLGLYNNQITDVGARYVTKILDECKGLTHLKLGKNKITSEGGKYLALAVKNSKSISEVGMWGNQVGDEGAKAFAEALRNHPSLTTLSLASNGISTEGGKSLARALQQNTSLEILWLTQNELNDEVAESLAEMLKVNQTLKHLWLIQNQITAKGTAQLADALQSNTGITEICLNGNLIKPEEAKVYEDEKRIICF
In words: SAR analysis of compounds that inhibit NOD1 - Set 2. [Related pubchem assays (depositor defined):AID1566, AID1575, AID1578, AID1849, AID1852, AID2333, AID2335, AID2798]. It counts as functional.

Assay [7] can be described thus: Vero E6 cell cytotoxicity, dose response, cytotoxicity control for non-replicating M. tuberculosis project, secondary assay (AID 492998). It counts as functional, VeroE6. The settings on record: Vero C1008.
The nature of a further assay: cells. It counts as functional.
A further assay deals with CHO. Put plainly: cytotoxicity in TLR9-MyD88 CHO cells, dose response, cytotoxicity control for TLR9-MyD88 binding inhibitor project, cell-based, luminescence (AID 588339).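 Further: CHO cells stably coexpressing TLR9 and MyD88 fusions from primary screen; compound exposure lasted 48 hours before viability readout.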 The settings on record: Cricetulus griseus. The class given is functional, hamster.
In the next assay the target is Beta Lactamase (Pseudomonas aeruginosa, UniProt Q932Y6). In words: beta-lactamase reporter inhibitor potency, dose response, artefact control for TLR9-MyD88 binding inhibitor project, BLA reporter cells, FRET fluorescence (AID 588341).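 Further: cell based assay in CHO-K1 cells stably expressing beta-lactamase.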 It counts as cell-based.
A further assay relates to INS1. In words: beta cell apoptosis inhibitors, cytokine rescue, dose response, luminescence, retest (AID 449756).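 Further: cell death triggered by IL-1 beta plus TNF-alpha plus IFN-gamma mixture; protective hits raise ATP signal compared with cytokine alone wells.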 It counts as functional, cell-based. The settings on record: Rattus norvegicus.
The nature of assay [8]: Shn3 3'UTR reporter inhibitors, dose response, cell-based, Clone20 osteoblasts, firefly luciferase, cherry-picked (AID 624132).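 Further: firefly luciferase luminescence from reporter carrying the Shn3 3'UTR in osteoblasts.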 The class given is functional.
Assay [9] in a line: control 3'UTR Renilla luciferase suppression, dose response, counter-screen for Shn3 inhibitor project, cell-based, Clone20-Shn3RL, cherry-picked (AID 624133). The class given is functional. A general note: Counterscreens check selectivity or assay interference.
Assay [10] is described as follows: HEK293T cell cytotoxicity, dose response, cytotoxicity control for HIV Vif inhibitor project, cherry-picks (AID 652208). The class given is functional, cell-based.

The source made the active and inactive calls.

Chain of Beta Lactamase (Q932Y6 whole entry): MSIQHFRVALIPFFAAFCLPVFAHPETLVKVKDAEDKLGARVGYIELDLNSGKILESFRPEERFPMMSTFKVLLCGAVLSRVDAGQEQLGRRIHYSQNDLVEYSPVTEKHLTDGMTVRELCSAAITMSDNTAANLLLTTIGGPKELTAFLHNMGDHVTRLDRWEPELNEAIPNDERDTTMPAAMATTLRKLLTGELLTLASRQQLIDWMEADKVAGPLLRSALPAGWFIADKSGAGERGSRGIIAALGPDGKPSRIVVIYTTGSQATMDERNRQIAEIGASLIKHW
Chain of Glucose-6-phosphate 1-dehydrogenase (P11413 whole entry): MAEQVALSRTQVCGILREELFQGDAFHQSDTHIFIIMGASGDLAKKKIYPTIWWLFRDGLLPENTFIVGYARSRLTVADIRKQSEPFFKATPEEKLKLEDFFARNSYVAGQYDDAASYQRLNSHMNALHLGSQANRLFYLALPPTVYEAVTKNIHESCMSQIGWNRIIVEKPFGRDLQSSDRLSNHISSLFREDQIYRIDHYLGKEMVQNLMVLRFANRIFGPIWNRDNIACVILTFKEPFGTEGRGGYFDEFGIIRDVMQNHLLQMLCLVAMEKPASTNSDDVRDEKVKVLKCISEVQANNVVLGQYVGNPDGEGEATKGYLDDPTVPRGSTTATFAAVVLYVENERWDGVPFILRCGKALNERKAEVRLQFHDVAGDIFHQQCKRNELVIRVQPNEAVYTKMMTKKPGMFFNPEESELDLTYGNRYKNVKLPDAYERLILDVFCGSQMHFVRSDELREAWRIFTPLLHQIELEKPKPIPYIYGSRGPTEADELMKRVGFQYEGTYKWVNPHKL
Chain of Transitional endoplasmic reticulum ATPase (P55072 whole entry): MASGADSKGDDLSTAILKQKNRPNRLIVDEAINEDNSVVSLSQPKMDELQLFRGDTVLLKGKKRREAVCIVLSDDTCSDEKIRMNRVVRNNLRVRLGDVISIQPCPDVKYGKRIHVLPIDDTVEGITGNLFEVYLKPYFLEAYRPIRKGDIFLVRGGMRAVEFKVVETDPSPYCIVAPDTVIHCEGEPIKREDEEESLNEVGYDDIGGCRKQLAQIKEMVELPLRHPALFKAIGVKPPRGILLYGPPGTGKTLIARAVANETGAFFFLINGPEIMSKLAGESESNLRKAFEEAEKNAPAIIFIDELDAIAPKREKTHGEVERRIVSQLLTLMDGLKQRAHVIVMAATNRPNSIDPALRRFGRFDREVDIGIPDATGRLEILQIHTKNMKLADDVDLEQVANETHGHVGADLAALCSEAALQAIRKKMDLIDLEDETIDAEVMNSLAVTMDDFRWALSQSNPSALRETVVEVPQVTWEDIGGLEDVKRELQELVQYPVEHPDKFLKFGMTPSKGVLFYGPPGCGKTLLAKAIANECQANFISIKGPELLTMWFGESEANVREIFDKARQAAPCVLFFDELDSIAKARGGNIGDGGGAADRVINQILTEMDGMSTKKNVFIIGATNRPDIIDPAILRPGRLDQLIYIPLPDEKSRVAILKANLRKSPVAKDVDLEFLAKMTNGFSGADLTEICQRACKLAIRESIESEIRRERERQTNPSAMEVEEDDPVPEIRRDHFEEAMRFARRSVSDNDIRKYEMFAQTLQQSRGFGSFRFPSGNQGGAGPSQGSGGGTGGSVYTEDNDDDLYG
Chain of Nucleotide-binding oligomerization domain-containing protein 2 (Q9HC29 whole entry, the tested form may be a part): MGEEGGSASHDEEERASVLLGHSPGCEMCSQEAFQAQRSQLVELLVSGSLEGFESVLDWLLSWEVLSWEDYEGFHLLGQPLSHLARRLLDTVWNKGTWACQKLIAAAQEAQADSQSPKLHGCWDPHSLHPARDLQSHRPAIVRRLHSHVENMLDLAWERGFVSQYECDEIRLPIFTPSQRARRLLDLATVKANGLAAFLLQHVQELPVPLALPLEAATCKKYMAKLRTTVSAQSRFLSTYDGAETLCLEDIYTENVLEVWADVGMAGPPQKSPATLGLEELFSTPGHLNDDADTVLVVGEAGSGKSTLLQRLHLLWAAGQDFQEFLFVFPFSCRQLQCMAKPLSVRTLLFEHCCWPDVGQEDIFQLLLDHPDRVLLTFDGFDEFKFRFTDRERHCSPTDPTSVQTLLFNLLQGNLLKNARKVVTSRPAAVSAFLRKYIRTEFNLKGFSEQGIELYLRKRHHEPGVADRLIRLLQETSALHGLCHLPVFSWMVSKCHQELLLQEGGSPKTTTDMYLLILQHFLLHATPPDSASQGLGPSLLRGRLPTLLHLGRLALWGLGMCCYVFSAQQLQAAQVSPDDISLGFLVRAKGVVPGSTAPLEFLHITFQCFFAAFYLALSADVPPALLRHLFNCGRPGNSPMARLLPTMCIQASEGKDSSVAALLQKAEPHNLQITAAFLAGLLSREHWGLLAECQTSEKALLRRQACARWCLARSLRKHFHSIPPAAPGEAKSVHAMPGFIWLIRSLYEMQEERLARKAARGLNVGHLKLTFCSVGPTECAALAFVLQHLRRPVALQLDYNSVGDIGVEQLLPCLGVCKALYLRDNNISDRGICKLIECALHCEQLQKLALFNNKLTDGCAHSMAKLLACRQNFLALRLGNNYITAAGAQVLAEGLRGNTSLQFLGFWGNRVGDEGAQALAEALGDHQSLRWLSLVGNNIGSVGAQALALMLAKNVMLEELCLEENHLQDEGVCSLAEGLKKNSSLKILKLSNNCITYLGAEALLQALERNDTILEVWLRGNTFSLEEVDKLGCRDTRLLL
Chain of Ras and Rab interactor 1/Tyrosine-protein kinase ABL1 (P00519 whole entry): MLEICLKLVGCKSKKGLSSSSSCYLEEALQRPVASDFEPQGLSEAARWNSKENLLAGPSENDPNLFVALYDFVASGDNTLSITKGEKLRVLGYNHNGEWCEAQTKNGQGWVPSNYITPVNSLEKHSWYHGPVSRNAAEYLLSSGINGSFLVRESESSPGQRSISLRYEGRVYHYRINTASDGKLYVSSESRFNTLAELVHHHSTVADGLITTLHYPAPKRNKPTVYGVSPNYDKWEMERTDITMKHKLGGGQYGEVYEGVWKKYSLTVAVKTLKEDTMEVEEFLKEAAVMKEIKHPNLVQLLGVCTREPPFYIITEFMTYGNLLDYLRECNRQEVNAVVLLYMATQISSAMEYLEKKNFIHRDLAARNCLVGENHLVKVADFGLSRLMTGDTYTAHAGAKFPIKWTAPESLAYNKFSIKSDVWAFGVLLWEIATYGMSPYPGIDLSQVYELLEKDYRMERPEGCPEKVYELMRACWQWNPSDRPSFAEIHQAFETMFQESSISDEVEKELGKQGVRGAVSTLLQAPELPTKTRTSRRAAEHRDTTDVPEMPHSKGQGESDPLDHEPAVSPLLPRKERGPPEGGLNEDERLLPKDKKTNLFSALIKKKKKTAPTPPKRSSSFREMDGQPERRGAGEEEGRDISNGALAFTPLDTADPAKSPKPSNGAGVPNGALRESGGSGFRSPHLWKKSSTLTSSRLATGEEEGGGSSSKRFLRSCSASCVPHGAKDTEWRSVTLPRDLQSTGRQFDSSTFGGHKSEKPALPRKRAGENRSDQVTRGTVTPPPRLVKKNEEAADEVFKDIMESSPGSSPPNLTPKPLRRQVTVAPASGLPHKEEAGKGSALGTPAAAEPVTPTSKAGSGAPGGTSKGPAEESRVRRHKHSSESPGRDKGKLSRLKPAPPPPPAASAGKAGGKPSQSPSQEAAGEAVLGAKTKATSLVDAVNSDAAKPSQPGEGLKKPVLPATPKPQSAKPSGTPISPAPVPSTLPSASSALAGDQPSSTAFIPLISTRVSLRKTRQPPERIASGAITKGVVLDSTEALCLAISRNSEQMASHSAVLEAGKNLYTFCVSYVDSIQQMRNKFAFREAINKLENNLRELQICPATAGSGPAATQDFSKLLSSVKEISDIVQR
Chain of Ras and Rab interactor 1/Tyrosine-protein kinase ABL1 (Q13671 whole entry): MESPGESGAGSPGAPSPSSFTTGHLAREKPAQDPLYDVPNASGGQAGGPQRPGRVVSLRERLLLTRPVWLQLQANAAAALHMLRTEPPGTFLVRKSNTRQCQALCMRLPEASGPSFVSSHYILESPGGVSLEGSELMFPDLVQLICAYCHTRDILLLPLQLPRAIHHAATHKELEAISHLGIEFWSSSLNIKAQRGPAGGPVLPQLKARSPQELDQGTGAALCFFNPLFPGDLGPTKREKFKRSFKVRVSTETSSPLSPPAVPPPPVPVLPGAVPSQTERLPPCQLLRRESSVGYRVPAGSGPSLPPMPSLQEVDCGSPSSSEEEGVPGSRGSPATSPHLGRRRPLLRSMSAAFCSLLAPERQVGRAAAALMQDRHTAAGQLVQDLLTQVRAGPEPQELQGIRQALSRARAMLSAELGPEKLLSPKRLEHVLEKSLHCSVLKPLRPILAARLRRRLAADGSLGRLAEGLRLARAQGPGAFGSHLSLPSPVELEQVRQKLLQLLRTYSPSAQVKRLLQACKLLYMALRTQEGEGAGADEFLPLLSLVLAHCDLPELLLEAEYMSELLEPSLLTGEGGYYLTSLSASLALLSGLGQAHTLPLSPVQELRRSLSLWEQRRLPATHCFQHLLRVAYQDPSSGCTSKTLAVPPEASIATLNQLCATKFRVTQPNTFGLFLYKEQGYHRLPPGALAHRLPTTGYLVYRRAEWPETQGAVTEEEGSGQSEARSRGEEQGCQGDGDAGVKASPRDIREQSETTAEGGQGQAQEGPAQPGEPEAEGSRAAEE

`O=C(NC1(O)C(=O)c2ccccc2C1=O)c1c(Cl)cccc1Cl`: the IC50 – broadly, the point on the concentration scale where inhibition reaches its midpoint – in assay [1] was > 50 µM (not active); in assay [2] it was 21 µM (inactive).
Consider `CCN(c1ccccc1)c1cc2ccccc2c(=O)[nH]1`, for which the AC50 (as a rule, the concentration giving half of the maximal activity seen) on Caspase-6 is 5.45 µM (active).
Consider `Cn1c(=O)[nH]c(=O)c2c1nc([N+](=O)[O-])n2Cc1ccccc1`, for which the IC50 at Interleukin-8 was 3.5 µM (active); in assay [3] it was 0.748 µM (active); in assay [4] it was 47.9 µM (inactive); in assay [6] it was 0.785 µM (active); in the assay “cells”, 4.75 µM (active); in the assay with CHO, 2.23 µM (active). Also, the IC50 on Beta Lactamase was > 49.8 µM (inactive). Besides, the values for the CC50 in [5] and in [7] were 3.23 µM (active) and 6.75 µM (active), respectively. Also, the AC50 is 7.36 µM (active) in the assay with INS1, 1.9 µM (active) in [8], 5.91 µM (active) in [9] and 4.52 µM (active) in assay [10].
